Test results from patent US20250215039A1, “NUCLEOSIDES FOR TREATING CANCER” (PRIMEFOUR THERAPEUTICS, INC., priority 2022, published 2025).
Where two headings read alike, the source gives them in different places.

Tested on: cancer cell lines
Test: Cancer cell proliferation activity (CellTiterGlo, 72 h)
Assay type: cell-based
Conditions: 72 h, 72 h, read-out: IC50
Method in brief: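 Cells seeded overnight at 37 °C, then dosed with compound at 0.1% final DMSO and incubated 72 h at 37 °C (5% or 10% CO2 by medium).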

IC50 (5637 cell line (bladder)): 2.89 µM
IC50 (CLS439 cell line (bladder)): > 50 µM
IC50 (HS729 cell line (muscle)): > 50 µM
IC50 (HSS78T cell line): > 50 µM
IC50 (JAR cell line (placenta)): > 50 µM
IC50 (SKMELS cell line): > 50 µM
IC50 (Homo sapiens, 22Rv1, 72 h, 22RV1 cell line (prostate)): 1.5 µM
IC50 (Homo sapiens, 786-0, 72 h, 786O cell line (kidney)): > 50 µM
IC50 (Homo sapiens, A204, 72 h, A204 cell line (muscle)): 5.28 µM
IC50 (Homo sapiens, A549, 72 h, A549 cell line): 2.52 µM
IC50 (Homo sapiens, A673, 72 h, A673 cell line (bone)): 5.33 µM
IC50 (Homo sapiens, A2780, 72 h, A2780 cell line (ovary)): > 50 µM
IC50 (Homo sapiens, A-375, 72 h, A375 cell line (skin)): 6.3 µM
IC50 (Homo sapiens, A-431, 72 h, A431 cell line (skin)): 0.34 µM
IC50 (Homo sapiens, ACHN, ACHN cell line (kidney)): 1.51 µM
IC50 (Homo sapiens, ASPC1, 72 h, ASPC1 cell line (pancreas)): 0.58 µM
IC50 (Homo sapiens, BT-20, 72 h, BT20 cell line (breast)): > 50 µM
IC50 (Homo sapiens, BXPC-3, 72 h, BXPC3 cell line (pancreas)): 0.08 µM
IC50 (Homo sapiens, C-33-A, C33A cell line (cervical)): 3.92 µM
IC50 (Homo sapiens, CAKI-1, 72 h, CAKI1 cell line (kidney)): > 50 µM
IC50 (Homo sapiens, COLO 205, 72 h, COLO205 cell line (colon)): 1.83 µM
IC50 (Homo sapiens, COLO-678, 72 h, COLO678 cell line (colon)): > 50 µM
IC50 (Homo sapiens, Ca-Ski, CASKI cell line (cervical)): 7.06 µM
IC50 (Homo sapiens, Caco-2, 72 h, CACO2 cell line (colon)): > 50 µM
IC50 (Homo sapiens, Calu-6, 72 h, CALU6 cell line (lung)): 4.68 µM
IC50 (Homo sapiens, DLD-1, 72 h, DLD1 cell line (colon)): > 50 µM
IC50 (Homo sapiens, DU-145, 72 h, DU145 cell line (prostate)): 3.15 µM
IC50 (Homo sapiens, EFO-21, 72 h, EFO21 cell line (ovary)): 16.9 µM
IC50 (Homo sapiens, EJ-28, 72 h, EJ28 cell line (bladder)): 5.41 µM
IC50 (Homo sapiens, Granta-519, 72 h, GRANTA-519 cell line (hematological)): 3.3 µM
IC50 (Homo sapiens, HCT-15, 72 h, HCT15 cell line (colon)): > 50 µM
IC50 (Homo sapiens, HCT-116, 72 h, HCT116 cell line (colon)): > 50 µM
IC50 (Homo sapiens, HEK293, 72 h, HEK293 cell line (kidney)): > 50 µM
IC50 (Homo sapiens, HL-60, 72 h, HL-60 cell line (hematological)): > 50 µM
IC50 (Homo sapiens, HT-29, 72 h, HT29 cell line (colon)): 2.8 µM
IC50 (Homo sapiens, HT-1080, 72 h, HT1080 cell line (connective tissue)): > 50 µM
IC50 (Homo sapiens, HeLa, HELA cell line (cervical)): > 50 µM
IC50 (Homo sapiens, HepG2, 72 h, HEPG2 cell line (liver)): 3.4 µM
IC50 (Homo sapiens, IGROV-1, 72 h, IGROV1 cell line (ovary)): > 50 µM
IC50 (Homo sapiens, IMR-90, 72 h, IMR.90 cell line): > 50 µM
IC50 (Homo sapiens, J82, 72 h, J82 cell line (bladder)): 1.32 µM
IC50 (Homo sapiens, JEG-3, 72 h, JEG3 cell line (placenta)): 4.2 µM
IC50 (Homo sapiens, JIMT-1, 72 h, JIMT1 cell line (breast)): > 50 µM
IC50 (Homo sapiens, K562, 72 h, K-562 cell line (hematological)): > 50 µM
IC50 (Homo sapiens, Kasumi 1, 72 h, KASUMI-1 cell line (hematological)): > 50 µM
IC50 (Homo sapiens, L-363, 72 h, L-363 cell line (hematological)): 5.63 µM
IC50 (Homo sapiens, LoVo, LOVO cell line (colon)): 1.95 µM
IC50 (Homo sapiens, MCF7, 72 h, MCF7 cell line (breast)): 1.04 µM
IC50 (Homo sapiens, MDA-MB-231, 72 h, MDAMB231 cell line (breast)): > 50 µM
IC50 (Homo sapiens, MDA-MB-435, 72 h, MDAMB435 cell line (skin)): > 50 µM
IC50 (Homo sapiens, MDA-MB-436, 72 h, MDAMB436 cell line (breast)): 1.43 µM
IC50 (Homo sapiens, MDA-MB-468, 72 h, MDAMB468 cell line (breast)): > 50 µM
IC50 (Homo sapiens, MG-63, 72 h, MG63 cell line (bone)): 4.7 µM
IC50 (Homo sapiens, MHH-ES-1, 72 h, MHHES1 cell line (bone)): > 50 µM
IC50 (Homo sapiens, MIA PaCa-2, 72 h, MIAPACA2 cell line (pancreas)): 6.39 µM
IC50 (Homo sapiens, MINO, MINO cell line (hematological)): 2.3 µM
IC50 (Homo sapiens, MV4-11, 72 h, MV4-11 cell line (hematological)): 0.79 µM
IC50 (Homo sapiens, NCI-H23, 72 h, NCI-H23 cell line (lung)): 4.86 µM
IC50 (Homo sapiens, NCI-H82, 72 h, NCIH82 cell line (lung)): > 50 µM
IC50 (Homo sapiens, NCI-H292, 72 h, NCIH292 cell line (lung)): > 50 µM
IC50 (Homo sapiens, NCI-H460, 72 h, NCIH460 cell line (lung)): 2.29 µM
IC50 (Homo sapiens, OVCAR-3, 72 h, OVCAR3 cell line (ovary)): > 50 µM
IC50 (Homo sapiens, OVCAR-4, 72 h, OVCAR4 cell line (ovary)): > 50 µM
IC50 (Homo sapiens, PANC-1, 72 h, PANC1 cell line (pancreas)): > 50 µM
IC50 (Homo sapiens, PC-3, 72 h, PC3 cell line (prostate)): > 50 µM
IC50 (Homo sapiens, PLC-PRF-5, 72 h, PLCPRF5 cell line (liver)): 3.79 µM
IC50 (Homo sapiens, Panc1005, 72 h, PANC1005 cell line (pancreas)): > 50 µM
IC50 (Homo sapiens, RD, RD cell line (muscle)): > 50 µM
IC50 (Homo sapiens, Ramos, RAMOS cell line (hematological)): > 50 µM
IC50 (Homo sapiens, SAOS-2, 72 h, SAOS2 cell line (bone)): 6.6 µM
IC50 (Homo sapiens, SF-268, 72 h, SF268 cell line (brain)): 3.94 µM
IC50 (Homo sapiens, SF-295, 72 h, SF295 cell line (brain)): 3.65 µM
IC50 (Homo sapiens, SK-BR-3, 72 h, SKBR3 cell line (breast)): 0.22 µM
IC50 (Homo sapiens, SK-HEP1, 72 h, SKHEP1 cell line (liver)): > 50 µM
IC50 (Homo sapiens, SK-LMS-1, 72 h, SKLMS1 cell line (uterus)): 3.55 µM
IC50 (Homo sapiens, SK-MEL-28, 72 h, SKMEL28 cell line (skin)): > 50 µM
IC50 (Homo sapiens, SK-N-AS, SKNAS cell line (brain)): > 50 µM
IC50 (Homo sapiens, SK-N-SH, SKNSH cell line (brain)): > 50 µM
IC50 (Homo sapiens, SK-OV-3, 72 h, SKOV3 cell line (ovary)): 3.18 µM
IC50 (Homo sapiens, SNB-75, 72 h, SNB75 cell line (brain)): > 50 µM
IC50 (Homo sapiens, SU-DHL10, 72 h, SU-DHL-10 cell line (hematological)): > 50 µM
IC50 (Homo sapiens, SU-DHL-6, 72 h, SU-DHL-6 cell line (hematological)): > 50 µM
IC50 (Homo sapiens, SW-620, 72 h, SW620 cell line (colon)): 1.71 µM
IC50 (Homo sapiens, T-24, 72 h, T24 cell line (bladder)): 5.25 µM
IC50 (Homo sapiens, TE-671, 72 h, TE671 cell line (muscle)): > 50 µM
IC50 (Homo sapiens, THP-1, 72 h, THP-1 cell line (hematological)): 5.57 µM
IC50 (Homo sapiens, U2OS, U2OS cell line (bone)): > 50 µM
IC50 (Homo sapiens, U-87 MG, U87MG cell line (brain)): > 50 µM
IC50 (Homo sapiens, UMUC3, 72 h, UMUC3 cell line (bladder)): 7.75 µM
IC50 (Homo sapiens, UO-31, 72 h, UO31 cell line (kidney)): > 50 µM
IC50 (Homo sapiens, WSU-NHL, WSU-NHL cell line (hematological)): 5.66 µM
IC50 (MT-3, 72 h, MT3 cell line (breast)): 3.17 µM
IC50 (NCI-H358M, NCIH358M cell line (lung)): 9.06 µM
IC50 (PBMC, PBMC (hematological)): > 50 µM
IC50 (RD-ES, RDES cell line (bone)): 3.48 µM
Compound: O=c1[nH]c(=O)n([C@H]2C[C@H](O)[C@](CO)(CF)O2)cc1F [Cpd. No. 112, 5-fluoro-1-((2R,4S,5R)-5-(fluoromethyl)-4-hydroxy-5-(hydroxymethyl)tetrahydrofuran-2-yl)pyrimidine-2,4(1H,3H)-dione]
